Assay results taken from the NIST ThermoML archive (doi:10.1021/je050183a).

Experiments:
[1] = refractive index (Na D-line) (dimensionless); details: 298.15 K; 101.33 kPa; Liquid; Standard Abbe refractometry
[2] = 101 kPa, Liquid; for viscosity: Capillary tube (Ostwald / Ubbelohde) method; for speed of sound: Linear variable-path acoustic interferometer; for mass density: Pycnometric method
[3] = refractive index (Na D-line) (dimensionless); xn = mol fraction of the nth substance listed; details: 298.15 K, 101 kPa, Liquid, Standard Abbe refractometry
[4] = xn = mol fraction of the nth substance listed; details: 101 kPa, Liquid; for viscosity: Capillary tube (Ostwald / Ubbelohde) method; for speed of sound: Linear variable-path acoustic interferometer; for mass density: Pycnometric method

CC1OC(C)OC(C)O1 (configuration not stated) [2,4,6-trimethyl-1,3,5-trioxane]
Details | refractive index
[1] | 1.4029

[2]
Details | mass density [kg/m3] | speed of sound [m/s] | viscosity [mPa·s]
288.15 K | 999.69 | 1217.7 | 1.374
298.15 K | 988.35 | 1174.5 | 1.107

CC1OC(C)OC(C)O1 (configuration not stated) [2,4,6-trimethyl-1,3,5-trioxane] + CC1COC(=O)O1
[3]
Details | refractive index
x1 = 0.091 | 1.4188
x1 = 0.2019 | 1.4172
x1 = 0.3007 | 1.4157
x1 = 0.4055 | 1.4142
x1 = 0.5011 | 1.4127
x1 = 0.6022 | 1.4111
x1 = 0.7006 | 1.4094

[4]
Details | mass density, 288.15 K [kg/m3] | mass density, 298.15 K [kg/m3] | speed of sound, 288.15 K [m/s] | speed of sound, 298.15 K [m/s] | viscosity, 288.15 K [mPa·s] | viscosity, 298.15 K [mPa·s]
x1 = 0.091 | 1181.68 | 1170.78 | 1451.8 | 1415 | 2.966 | 2.386
x1 = 0.2019 | 1151.81 | 1141.1 | 1420.2 | 1382.6 | 2.809 | 2.245
x1 = 0.3007 | 1127.63 | 1117.02 | 1392.9 | 1354.5 | 2.661 | 2.116
x1 = 0.4055 | 1104.07 | 1093.5 | 1364.7 | 1325.5 | 2.494 | 1.977
x1 = 0.5011 | 1084.21 | 1073.63 | 1339.7 | 1299.9 | 2.333 | 1.846
x1 = 0.6022 | 1064.71 | 1054.05 | 1314 | 1273.4 | 2.155 | 1.705
x1 = 0.7006 | 1046.98 | 1036.19 | 1289.8 | 1248.5 | 1.974 | 1.563
x1 = 0.8028 | 1029.73 | – | 1265.5 | – | 1.779 | –
x1 = 0.9027 | 1014 | – | 1242.1 | – | 1.581 | –
x1 = 1 | 999.69 | – | 1217.7 | – | 1.374 | –

CC1COC(=O)O1 (configuration not stated) [4-methyl-1,3-dioxolan-2-one]
Details | refractive index
[1] | 1.4203

[2]
Details | mass density [kg/m3] | speed of sound [m/s] | viscosity [mPa·s]
288.15 K | 1208.67 | 1478.4 | 3.086
298.15 K | 1197.58 | 1442.3 | 2.499

CC1COC(=O)O1 (configuration not stated) [4-methyl-1,3-dioxolan-2-one] + CC1OC(C)OC(C)O1
Details | refractive index
[3], x2 = 0 | 1.4203

[4], x2 = 0
Details | mass density [kg/m3] | speed of sound [m/s] | viscosity [mPa·s]
288.15 K | 1208.67 | 1478.4 | 3.086
298.15 K | 1197.58 | 1442.3 | 2.499

CCOC(=O)OCC [diethyl carbonate]
Details | refractive index
[1] | 1.383

[2]
Details | mass density [kg/m3] | speed of sound [m/s] | viscosity [mPa·s]
288.15 K | 980.41 | 1225.6 | 0.868
298.15 K | 969.15 | 1173.4 | 0.749

CCOC(=O)OCC [diethyl carbonate] + CC1OC(C)OC(C)O1
Details | refractive index
[3], x2 = 0 | 1.383

[4], x2 = 0
Details | mass density [kg/m3] | speed of sound [m/s] | viscosity [mPa·s]
288.15 K | 980.41 | 1225.6 | 0.868
298.15 K | 969.15 | 1173.4 | 0.749

COC(=O)OC [dimethyl carbonate]
Details | refractive index
[1] | 1.366

[2]
Details | mass density [kg/m3] | speed of sound [m/s] | viscosity [mPa·s]
288.15 K | 1076.43 | 1242 | 0.647
298.15 K | 1063.1 | 1197.4 | 0.579

COC(=O)OC [dimethyl carbonate] + CC1OC(C)OC(C)O1
Details | refractive index
[3], x2 = 0 | 1.366

[4], x2 = 0
Details | mass density [kg/m3] | speed of sound [m/s] | viscosity [mPa·s]
288.15 K | 1076.43 | 1242 | 0.647
298.15 K | 1063.1 | 1197.4 | 0.579
